Experimental data: PMC11302729, “Repurposing Hsp90 inhibitors as antimicrobials targeting two-component systems identifies compounds leading to loss of bacterial membrane integrity” (Microbiology Spectrum, 2024)
Values after ≈ are worked out from the molar mass of the structure shown. Values joined by “and” are separate entries in the source; they are usually repeats but may differ in a detail not shown here. Equal entries are not always repeated.

Key:
[1] = test system: PhoQ from Salmonella typhimurium; design: method as in PMID 29110989; settings: cited from earlier work
[2] = test system: CckA from Caulobacter crescentus; design: method as in PMID 29110989; settings: cited from earlier work
[3] = test system: Staphylococcus aureus str. Newman; test: Minimal inhibitory concentration (microdilution) against S. aureus; format: cell-based; settings: for MIC S. aureus: Table ST3
Experimental: (§1) Staphylococcus aureus str. Newman, Enterococcus faecalis vanA (strain E0155), Enterococcus faecium vanA (strain E1654), Escherichia coli ATCC 25922, Escherichia coli D21f2 with a truncated LPS barrier, Escherichia coli JW5503 (ΔtolC) ([49]), Pseudomonas aeruginosa ATCC 27853, and Pasteurella haemolytica ATCC 29701 were grown in Mueller-Hinton Broth (MHB) (Oxoid, Basingstoke, UK) and incubated at 37°C.
(§2) The minimal inhibitory concentration was determined using the microdilution method following the guidelines of the European Committee on Antimicrobial Susceptibility Testing ([50]). Briefly, a series of twofold dilutions in MHB of each compound were made in a 96-well plate, with final concentrations ranging from 50 to 0.39 µg/mL in 100 µL final volume per well. A hundred microliters of 1:100 dilution of an overnight culture of the correspondent bacteria in MHB was added to each well. Plates were incubated for 18 hours at 37°C. MIC was recorded as the lowest concentration where no growth was detected as measured by optical density at 600 nm (OD600) using Spectramax M5 (Molecular Devices LLC, San Jose, CA, USA). […] Wells containing bacteria with or without 1% DMSO and medium alone were included as controls in every plate.

[4] = test system: Enterococcus faecalis vanA (strain E0155); test: MIC (microdilution) against E. faecalis; format: cell-based; settings: Enterococcus faecalis, read-out: MIC E. faecalis
Experimental: as §1, §2

[5] = test system: Pasteurella haemolytica ATCC 29701; test: MIC (microdilution) against P. haemolytica; format: cell-based; settings: Mannheimia haemolytica, ATCC29701, read-out: MIC P. haemolytica, Table ST1
Experimental: as §1, §2

[6] = test system: Escherichia coli D21f2 with a truncated LPS barrier; test: MIC (microdilution) against E. coli D21f2; format: cell-based; settings: read-out: MIC E coli D21f2
From the text: (§3) We also tested the inhibitory activity of compounds in two different E. coli mutants: (i) E. coli JW5503 that lacks TolC efflux pumps and (ii) E. coli D21f2 that has a defective LPS inner core increasing permeability of the outer membrane. E. coli D21f2 has a slightly higher susceptibility to DPP compounds than E. coli ATCC25922.
as §1, §2

[7] = test system: Escherichia coli JW5503 (ΔtolC); test: MIC (microdilution) against E. coli JW5503; format: cell-based; settings: Escherichia coli, read-out: MIC E. coli JW5503
From the text: as §3, §1, §2

S. aureus str. Newman = test: Membrane permeability using SYTOX-Green, flow cytometry; format: cell-based; settings: for % FITC stained bacteria 0.5 xMIC: 0.5× MIC; for % FITC stained bacteria 0.5 xMIC / % FITC stained bacteria 1 xMIC / % FITC stained bacteria 2 xMIC: 5 min exposure; for % FITC stained bacteria 1 xMIC: 1× MIC; for % FITC stained bacteria 2 xMIC: 2× MIC; for Membrane damage: if considered to cause membrane damage to S. aureus
Experimental: S. aureus str. Newman was grown to exponential phase (OD600 = 0.4) in MHB media. […] Nisin (Sigma-Aldrich) and novobiocin (Sigma-Aldrich) were used as positive and negative controls for membrane permeabilization, and stained and unstained untreated controls were also included in each assay. After exposure, samples were centrifuged at 4,000 r.p.m. for 5 min and resuspended in PBS. Bacteria were dyed by adding the fluorescent nuclear stain SYTOX Green (Molecular Probes, Invitrogen) to a final concentration of 0.5 µM and incubating for 5 min in the dark. Samples were centrifuged again and resuspended with PBS to remove unbound stain. Three hundred microliters of each sample was transferred to a clean well in a 96-well clear-bottom plate (Corning Incorporated). Fluorescence was measured in CytoFLEX flow cytometer (Beckman Coulter, Brea, CA, USA) using the green (FITC) channel with the excitation wavelength at 488 nm. Overlay histograms were created with CytExpert Software (Beckman Coulter, Brea, CA, USA).

[8] = test system: Pseudomonas aeruginosa ATCC 27853; test: MIC (microdilution) against P. aeruginosa; format: cell-based; settings: Pseudomonas aeruginosa, ATCC27853; Table ST1; read-out: MIC P. aeruginosa
Experimental: as §1, §2

[9] = test system: Escherichia coli ATCC 25922; test: MIC (microdilution) against E. coli; format: cell-based; settings: Escherichia coli, ATCC25922; Table ST1; read-out: MIC E. coli
Experimental: as §1, §2

[10] = test system: Enterococcus faecium vanA (strain E1654); test: MIC (microdilution) against E. faecium; format: cell-based; settings: Enterococcus faecium, read-out: MIC E. faecium
Experimental: as §1, §2

sheep red blood cells = test: Haemolysis assay; format: cell-based
Experimental: The hemolysis assay was adapted from the study by Evans et al. ([65]). Briefly, sheep RBC 10% washed pooled cells in PBS (Rockland Immunochemicals, Limerick, PA, USA) were diluted 1:5 to give a final concentration of 2% RBCs in PBS. […] A non-treated control, 1% DMSO (vehicle control), and complete cell lysis control (Triton-X 2%) were included in each assay. After exposure samples were centrifuged at 4°C at 1,000 g for 15 min and 100 µL of supernatant transferred to a clean well in a 96-well, clear, flat-bottom plate (Corning Incorporated). Released hemoglobin was measured by absorption at 540 nm using a Spectramax M5 plate reader. The experiments were performed in quadruplicate. The percentage of hemolysis was calculated as follows:
Hemolysis=A540nm,testcondition−A540nm,DMSOcontrol/A540nm,TritonXControl−A540nm,DMSOcontrol

in vitro = format: cell-based; settings: human
Experimental: (§4) HEK293 cells and the human hepatocellular carcinoma cells (HepG2) were routinely cultured in 75-cm^2 culture flasks (Corning Incorporated) on high-glucose Dulbecco’s modified Eagle medium (DMEM) containing glutaMax and phenol red (Gibco) supplemented with 1% penicillin/streptomycin (Gibco) and 10% fetal bovine serum (FBS) (Gibco). Cells were maintained at 37°C and 5% CO2.
(§5) Cytotoxicity assays with HEK293 and HepG2 cells were performed in 96-well plates seeded with 5 × 10^4 cells/well and incubated for 24 hours to reach 80%–90% confluency. Exterior wells were filled with only medium to prevent evaporation. Culture medium was removed from the cells, and 100 µL of exposure medium [high-glucose DMEM without phenol red (Gibco)] was added to avoid a potential interaction between FBS components or antibiotics and tested compounds. A twofold dilution series of compounds in exposure medium (range 100–3.2 μg/mL) was made in a separate 96-well plate, and 100 µL of each of these dilutions was added to the assay plates for 24 hours at 37°C in the presence of 5% CO2. Control wells contained cells with DMEM, DMEM + 1% DMSO (vehicle control), or DMEM + 20% DMSO. Wells without cells were also included as negative control. After exposure, the medium was replaced with 100 µL 10% Alamar Blue (Invitrogen) in exposure medium. After 45 min incubation at 37°C and 5% CO2, fluorescence was measured on a Spectramax M5 plate reader at λex = 541 nm, λem = 590 nm. Cell viability compared with the vehicle control was calculated, and inhibition curves for each compound were fitted (non-linear curve fit, four variables, bottom constrained = 0) in Prism 9 (GraphPad Software, San Diego, USA).

HEK293 cells [11] = test: in vitro; format: cell-based; settings: for Selectivity Index: LC50/MIC (HEK293 / S. aureus); for LC20: human, 24 h
Experimental: as §4, §5

HEK293 cells [12] = test: Cell imaging of HEK293 cells; format: cell-based; settings: for cells in G2/M phase: HEK293, LC20, 24 hours exposure, DMSO control 2.68% ± 1.31%; for Morphological changes of HEK293 cells: LC20, 24 hours exposure, 40× amplification
Experimental: HEK293 cells were plated in 24-well plates on exposure medium for 24 hours (500,000 cells/well). Cells were exposed to a subset of compounds at a lethal concentration of 20% (LC20). After 24 hours exposure, cells were fixed with 2% glutaraldehyde for 15 min, washed with water, permeabilized with 0.5% Triton-X, washed twice with water, and stained with Toluidine blue 0.3%. For 100× amplification, cells were harvested by pipetting up and down in 250 µL of exposure medium. Cells from three wells treated with the same compound were pooled and centrifuged for 5 min at 1,500 r.p.m. The cell pellet was fixed in 0.1 M cacodylate buffer containing 2% glutaraldehyde (vol/vol) (pH 7.4). After 1 hour on ice, the pellet was washed with 0.1 M cacodylate buffer and fixed in 0.1 M cacodylate buffer containing 1% osmium tetroxide (wt/vol). After a further hour on ice, the cell pellet was embedded in hard Epon and 1-µm slides were cut and stained with 1% toluidine blue and 1% borax (wt/vol). Cell abnormalities were assessed by microscopy using a Leica DM6B light microscope (Leica Microsystems B.V., Amsterdam, the Netherlands) at 100× magnification.

[13] = Staphylococcus aureus, NEWMAN, Fig 2
[14] = Staphylococcus aureus, NEWMAN, Fig 2, value in parentheses
[15] = Table ST3, value in parentheses

SMILES | IC50 [1] [µM] | IC50 [2] [µM] | MIC [3, 13] [µg/mL] | MIC [3, 14] [µM] | MIC S. aureus [3] [µg/mL] | MIC [3, 15] [µM] | MIC [4] [µg/mL] | MIC [5] [µg/mL] | MIC [7] [µg/mL] | % FITC stained bacteria 0.5 xMIC (S. aureus str. Newman) [%] | % FITC stained bacteria 1 xMIC (S. aureus str. Newman) [%] | % FITC stained bacteria 2 xMIC (S. aureus str. Newman) [%] | Membrane damage (S. aureus str. Newman) | MIC [8] [µg/mL] | MIC [9] [µg/mL] | MIC [10] [µg/mL] | CC50 at 24 h (in vitro) | Selectivity Index (HEK293 cells [11]) | cells in G2/M phase (HEK293 cells [12]) | Morphological changes of HEK293 cells (HEK293 cells [12]) | also measured
CCc1cc(-c2n[nH]c(C)c2-c2ccc3c(c2)OCCO3)c(O)cc1O [CCT018159] | 261 | 30 |  |  |  |  |  |  |  |  |  |  |  |  |  |  |  |  |  |  | 
COc1ccc(-c2c(-c3cc(Cl)c(O)cc3O)n[nH]c2C)cc1 [Compound 5b] | 238 | 14 |  |  |  |  |  |  |  |  |  |  |  |  |  |  |  |  |  |  | 
Oc1ccc(-c2onc(C(F)(F)F)c2-c2ccc(Cl)cc2)c(O)c1 [DPP-11] |  |  | 3.12 | 8.76 | 3.12 (≈ 8.77 µM) | 8.76 | 12.5 (≈ 35.1 µM) | 62.5 (≈ 176 µM) | 1.56 (≈ 4.39 µM) | 24.77 | 28.12 | 57.97 | YES | > 250 | > 250 | 12.5 (≈ 35.1 µM) | 3.41 µg/mL and 9.61 µM | 1.10 |  |  | MIC [6]: 25 µg/mL (≈ 70.3 µM); Haemolysis (sheep red blood cells; if considered to cause haemolysis to red blood cells): YES
CCOc1ccc(-c2[nH]nc(C(F)(F)F)c2-c2ccc(OC)cc2)c(O)c1 [DPP-14] |  |  | 6.25 | 16.4 | 6.25 (≈ 16.5 µM) | 16.45 | 12.5 (≈ 33 µM) | > 250 | 3.13 (≈ 8.27 µM) | 28.78 | 44.58 | 56.62 | YES | > 250 | > 250 | 12.5 (≈ 33 µM) | 6.57 µg/mL and 17.3 µM | 1.05 | 12.24% ± 1.23% | no morphological changes | RBC hemolysis (sheep red blood cells): not hemolytic; LC20 (HEK293 cells [11]): 3 µg/mL (≈ 7.93 µM)
CCOc1ccc(-c2[nH]nc(C(F)(F)F)c2-c2ccc(OC)c(OC)c2)c(O)c1 [DPP-20] |  |  | 12.5 | 30.5 | 12.5 (≈ 30.6 µM) | 30.49 | 25 (≈ 61.2 µM) | > 250 | 6.25 (≈ 15.3 µM) | 31.90 | 40.99 | 50.97 | YES | > 250 | > 250 | 25 (≈ 61.2 µM) | 16.5 µg/mL and 40.3 µM | 1.32 | 26.25% ± 4.68% | no morphological changes | RBC hemolysis (sheep red blood cells): not hemolytic; LC20 (HEK293 cells [11]): 3 µg/mL (≈ 7.35 µM)
